Experimental data taken from PubChem BioAssay (NCI).
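Briefly, cells in 96-well plates were exposed to five compound concentrations for 48 h, and endpoints were estimated by linear interpolation. Abbreviation: GI50, concentration required for 50% inhibition of growth. At the TGI there is no net growth.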

Tests used:
Assay in all cases: NCI anticancer screen, dose series, 48 h
[1] = test system: A498 renal
[2] = test system: SNB-19 CNS
[3] = test system: LOX IMVI melanoma
[4] = test system: RXF 393 renal
[5] = test system: SN12C renal
[6] = test system: OVCAR-4 ovarian
[7] = test system: MALME-3M melanoma
[8] = test system: SK-MEL-28 melanoma
[9] = test system: U251 CNS
[10] = test system: SF-295 CNS
[11] = test system: SK-MEL-2 melanoma
[12] = test system: OVCAR-3 ovarian
[13] = test system: OVCAR-5 ovarian
[14] = test system: M14 melanoma
[15] = test system: HOP-62 NSCLC
[16] = test system: T-47D breast
[17] = test system: CCRF-CEM leukemia
[18] = test system: KM12 colon
[19] = test system: SF-268 CNS
[20] = test system: HCT-15 colon
[21] = test system: HT29 colon
[22] = test system: NCI/ADR-RES ovarian
[23] = test system: OVCAR-8 ovarian
[24] = test system: SK-MEL-5 melanoma
[25] = test system: A549 NSCLC
[26] = test system: ACHN renal
[27] = test system: NCI-H226 lung
[28] = test system: SW-620 colon
[29] = test system: SK-OV-3 ovarian
[30] = test system: NCI-H23 lung
[31] = test system: SNB-75 CNS
[32] = test system: NCI-H522 lung
[33] = test system: MOLT-4 leukemia
[34] = test system: IGROV1 ovarian
[35] = test system: CAKI-1 renal
[36] = test system: UACC-257 melanoma
[37] = test system: BT-549 breast
[38] = test system: HOP-92 NSCLC
[39] = test system: 786-0 renal
[40] = test system: EKVX NSCLC
[41] = test system: COLO 205 colon
[42] = test system: TK-10 renal
[43] = test system: HCC-2998 colon
[44] = test system: UO-31 renal
[45] = test system: NCI-H460 lung
[46] = test system: HS 578T breast
[47] = test system: K-562 leukemia
[48] = test system: HL-60(TB) leukemia
[49] = test system: MDA-MB-231 breast
[50] = test system: SF-539 CNS
[51] = test system: HCT-116 colon
[52] = test system: MDA-MB-435
[53] = test system: MDA-MB-468 breast
[54] = test system: UACC-62 melanoma
[55] = test system: DU-145 prostate
[56] = test system: MCF7 breast

## CCn1c(SCC(=O)Nc2ccc(-c3nc4ccccc4[nH]3)cc2)nc2ccccc2c1=O
[1]
  GI50: 1610 nM
  TGI: 3.18 µM
[2]
  GI50: 1750 nM
  TGI: 3.31 µM
[3]
  GI50: 1700 nM
  TGI: 3.1 µM
[4]
  GI50: 1710 nM
  TGI: 3.19 µM
[5]
  GI50: 1470 nM
  TGI: 2820 nM
[6]
  GI50: 1750 nM
  TGI: 3.2 µM
[7]
  GI50: 1640 nM
  TGI: 3.02 µM
[8]
  GI50: 1680 nM
  TGI: 3.05 µM
[9]
  GI50: 1750 nM
  TGI: 3.39 µM
[10]
  GI50: 1670 nM
  TGI: 3.09 µM
[11]
  GI50: 1910 nM
  TGI: 3.95 µM
[12]
  GI50: 1780 nM
  TGI: 3.28 µM
[13]
  GI50: 1480 nM
  TGI: 2980 nM
[14]
  GI50: 1700 nM
  TGI: 3.15 µM
[15]
  GI50: 1700 nM
  TGI: 3.18 µM
[16]
  GI50: 1710 nM
  TGI: 3.49 µM
[17]
  GI50: 25 µM
  TGI: > 100 µM
[18]
  GI50: 2500 nM
  TGI: 6.49 µM
[19]
  GI50: 2060 nM
  TGI: 4.56 µM
[20]
  GI50: 1720 nM
  TGI: 3.3 µM
[21]
  GI50: 1990 nM
  TGI: 4.26 µM
[22]
  GI50: 1820 nM
  TGI: 3.65 µM
[23]
  GI50: 2090 nM
  TGI: 4.6 µM
[24]
  GI50: 1780 nM
  TGI: 3.33 µM
[25]
  GI50: 1740 nM
  TGI: 3.59 µM
[26]
  GI50: 1700 nM
  TGI: 3.07 µM
[27]
  GI50: 1670 nM
  TGI: 3.6 µM
[28]
  GI50: 1870 nM
  TGI: 3.5 µM
[29]
  GI50: 1930 nM
  TGI: 3.92 µM
[30]
  GI50: 2040 nM
  TGI: 4.73 µM
[31]
  GI50: 1290 nM
  TGI: 2610 nM
[32]
  GI50: 1770 nM
  TGI: 3.51 µM
[33]
  GI50: 4.21 µM
  TGI: > 100 µM
[34]
  GI50: 1690 nM
  TGI: 3.33 µM
[35]
  GI50: 1780 nM
  TGI: 3.29 µM
[36]
  GI50: 1790 nM
  TGI: 3.45 µM
[37]
  GI50: 1500 nM
  TGI: 2860 nM
[38]
  GI50: 1660 nM
  TGI: 4.05 µM
[39]
  GI50: 1650 nM
  TGI: 3.02 µM
[40]
  GI50: 1840 nM
  TGI: 3.9 µM
[41]
  GI50: 2300 nM
  TGI: 4.27 µM
[42]
  GI50: 1800 nM
  TGI: 3.26 µM
[43]
  GI50: 2040 nM
  TGI: 4.89 µM
[44]
  GI50: 1530 nM
  TGI: 2880 nM
[45]
  GI50: 1770 nM
  TGI: 3.29 µM
[46]
  GI50: 2060 nM
  TGI: 4.66 µM
[47]
  GI50: 2910 nM
  TGI: > 100 µM
[48]
  GI50: 2460 nM
  TGI: 6.02 µM
[49]
  GI50: 1820 nM
  TGI: 3.35 µM
[50]
  GI50: 1760 nM
  TGI: 3.15 µM
[51]
  GI50: 1750 nM
  TGI: 3.13 µM
[52]
  GI50: 1730 nM
  TGI: 3.11 µM
[53]
  GI50: 1560 nM
  TGI: 3.04 µM
[54]
  GI50: 1560 nM
  TGI: 2930 nM
[55]
  GI50: 2020 nM
  TGI: 3.99 µM
[56]
  GI50: 1550 nM
  TGI: 3 µM
